Measured values published in patent US20240382409A1, “COMPOSITION FOR ANTI-AGING AND SKIN IMPROVEMENT, COMPRISING COMPLEX OF INDIAN GOOSE-BERRY EXTRACT AND BARLEY SPROUT EXTRACT (lB COMPLEX) AS ACTIVE INGREDIENT” (HLSCIENCE CO., LTD, priority 2021, published 2024).
Values after ≈ are worked out from the molar mass of the structure shown.

Test: Anti-oxidation test: DPPH radical scavenging activity
Format: biochemical
Settings: positive control
Method: In order to investigate the anti-oxidant effect using Examples 1 to 7 and Comparative examples 1 to 2, the DPPH (2,2-diphenyl-1-picryl hydrazyl) radical scavenging activity was evaluated.
The Examples 1 to 7 and Comparative examples 1 to 2 were mixed with 55 μM DPPH solution 450 μl by concentration and then reacted at 4° C. for 30 minutes. After completing the reaction, each sample was placed in a 96-well plate and the absorbance of samples was measured at 520 nm using a micro-plate reader. Then, a sample untreated group was used as a control group, and the free radical scavenging activity (%) of the sample was calculated as Equation 1 below.
Then, as a positive control scavenging radicals, ascorbic acid was used, and the concentration of ascorbic acid when the free radical scavenging activity was 50% was shown as 1.63 μg/mL.
IC50 means the concentration of sample when the free radical scavenging activity of the treated sample is 50%. Table 5 above summarizes the free radical scavenging activity in 5 μg/mL of each sample. […] It could be confirmed that the DPPH radical scavenging activity of Example 5 was the most excellent among them.

- IC50 (concentration when the free radical scavenging activity is 50%): 1.63 µg/mL (≈ 9.25 µM)
SMILES: O=C1O[C@H]([C@@H](O)CO)C(O)=C1O [Ascorbic acid, ascorbic acid]
